The structures appear in SMILES notation.

Holding throughout (assay type): cell-based, cotton (Coker 312)
In test [1] the test system is transgenic cotton calli (Coker 312). In words: Induction of embryogenesis in transgenic cotton callus on induction media with antioxidant (ascorbic acid). As for the experimental part:
[…] This culture was maintained at 28° C. under conditions of dark or limited lighting. The dark or limited lighting conditions were accomplished using a black bag, a covering of aluminum foil, or by incubating in a dark growth chamber. Alternatively, the transgenic calli may be incubated under green light. The incubation is continued for about eight to ten weeks.

A further test concerns embryogenic cotton calli. Briefly: Embryogenic callus formation on induction media with ethylene inhibitors. The following applies: 40 calli tested. As for the experimental part:
The transgenic calli were removed from the hypocotyls and transferred to a culture containing hormone-free media comprising the following components per liter: 4.4 g MS salts with B5 vitamins; 30 g glucose, pH 5.8; an antioxidant, such as ascorbic acid (10-100 mg); an ethylene inhibitor, such as aminoethoxyvinylglycine at approximately 5 μM; GELRITE or PHYTAGEL (2-3 g); and selective agents as described above. This culture was maintained at 28° C. under conditions of dark or limited lighting. The dark or limited lighting conditions were accomplished using a black bag, a covering of aluminum foil, or by incubating in a dark growth chamber. Alternatively, the transgenic calli may be incubated under green light. The incubation is continued for about eight to ten weeks.
In two separate experiments, the ethylene inhibitors AVG (aminoethoxy-vinylglycine), DNP (2,4-dinitrophenol), and salicylic acid were tested to determine their influence on the induction of embryogenic cotton calli.

Another test concerns cotton embryos. Briefly: Embryo germination on germination media with varying carbohydrate concentration. As for the experimental part:
The preparation of Agrobacterium, seed sterilization, seed germination, inoculation, co-culture, and selection were performed as described in Example 1. Embryos were induced as outlined in Examples 2, 3, and 4. After eight weeks, the embryogenic tissue that formed was transferred to an embryo maturation media as described in Examples 5 and 6. Cultures were monitored for the presence of actively growing embryos.
About every four weeks, actively growing tissue and small embryos were removed and placed on fresh maturation media. The embryos were spaced on the culture plates with adequate room for growth. The tissue was returned to the warm room and incubated under the same growth conditions.
Embryos larger than about 5 mm were transferred to a germination media (Stewart and Hsu, Planta 137:113-117, […]) with various carbohydrate concentrations and 0.25 g/L GELRITE. The embryos are incubated at 28° C. in a lighted incubator with a 16/8 day/night cycle.
Various concentrations of glucose and sucrose in the germination media were tested. The germination media comprised sucrose or glucose at concentrations ranging from about 0%-2% (w/v).

Setting [2] is: pMON20956 vector, ascorbic acid 100 mg/L.
Where [3] appears, read: 0.1% carbohydrate in germination media.
The mark [4] stands for this setting: 0.5% carbohydrate in germination media.
Setting [5] is: 1% carbohydrate in germination media.
[6] abbreviates: 2% carbohydrate in germination media.

With `O=C1O[C@H]([C@@H](O)CO)C(O)=C1O` [Ascorbic Acid, ascorbic acid], in test [1] (Coker 312, two independent experiments), the “effect on frequency of embryogenesis” value was “increase the frequency of embryogenesis”. In test [1] (setting [2]), the “% Embryogenic Calli Transfer 1” value is given as 3%, the “% Embryogenic Calli Transfer 2” value came to 31% and the “Total Frequency of Embryogenesis” value was 34%.
As for `O=[N+]([O-])c1ccc(O)c([N+](=O)[O-])c1` [DNP, 2,4-dinitrophenol], in the test with embryogenic cotton calli (Expt 1 pMON10517, 1 μM), the “Embryogenic Calli Formed” value is listed as 17 and the “Frequency of Formation” value came to 43%. Moreover, in the test with embryogenic cotton calli (Expt 2 pMON10079, 1 μM), the “Embryogenic Calli Formed” value is listed as 16 and the “Frequency of Formation” value is recorded as 40%.
Consider `O=C(O)c1ccccc1O` [salicylic acid], for which, in the test on embryogenic cotton calli (Expt 1 pMON10517, 50 μM), the “Embryogenic Calli Formed” value came to 12 and the “Frequency of Formation” value is reported as 30%. In addition, in the test with embryogenic cotton calli (Expt 2 pMON10079, 50 μM), the “Embryogenic Calli Formed” value came out at 17 and the “Frequency of Formation” value stood at 43%.
Take `OC[C@H]1O[C@@](CO)(O[C@H]2O[C@H](CO)[C@@H](O)[C@H](O)[C@H]2O)[C@@H](O)[C@@H]1O` [sucrose]: the “# Plantlets with Expanded Leaves” value in the test with cotton embryos (setting [3]) is reported as 7; in the test on cotton embryos (setting [4]), 10; in the test with cotton embryos (setting [5]), 6; with cotton embryos (setting [6]), 5. In addition, the “Transformation Frequency” value in the test with cotton embryos (setting [3]) was 47%; in the test on cotton embryos (setting [4]) it was 43%; in the test with cotton embryos (setting [5]), 27%; in the test with cotton embryos (setting [6]) it was 28%. Further, the “effect on frequency of embryo germination and plantlet formation” value with cotton embryos (concentrations ranging from about 0% to 0.5% (w/v) in germination media) is “significantly increased the frequency of embryo germination and plantlet formation”.

Values taken from patent publication US20040087030A1, “Method for the regeneration of cotton” (priority 1998, published 2004).
